Test results from PubChem BioAssay (NCI).
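Grown in 96-well plates, cells were treated for 48 hours with each compound at five concentrations. Insufficient inhibition: endpoint recorded as highest concentration tested. Here, GI50 denotes the concentration required for 50% inhibition of growth. TGI is the concentration that stops growth completely.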

Assays:
Experiment in all cases: DTP human tumour cell line panel, 48 h
[1] = test system: SF-268 CNS
[2] = test system: U251 CNS
[3] = test system: A498 renal
[4] = test system: SR leukemia
[5] = test system: HCC-2998 colon
[6] = test system: PC-3 prostate
[7] = test system: NCI-H522 lung
[8] = test system: OVCAR-3 ovarian
[9] = test system: HOP-62 NSCLC
[10] = test system: SNB-75 CNS

Cc1ccc(C)c2c(N=Nc3ccccc3[N+](=O)[O-])c(O)[nH]c12
TGI [1]: > 100 µM
TGI [2]: > 100 µM
TGI [3]: > 100 µM
TGI [4]: > 100 µM
TGI [5]: > 100 µM
TGI [6]: > 100 µM
TGI [7]: > 100 µM
TGI [8]: > 100 µM
TGI [9]: > 100 µM
TGI [10]: > 100 µM

Cn1c2ccccc2c2nnc(NNCc3ccccn3)nc21
GI50 [1]: 0.294 µM
TGI [1]: 6.5 µM
GI50 [2]: 0.446 µM
TGI [2]: 14.4 µM
GI50 [3]: 0.415 µM
TGI [3]: 12.3 µM
GI50 [4]: 0.311 µM
TGI [4]: 18.7 µM
GI50 [5]: 0.321 µM
TGI [5]: 12.7 µM
GI50 [6]: 0.594 µM
TGI [6]: 16.5 µM
GI50 [7]: 0.546 µM
TGI [7]: 18.1 µM
GI50 [8]: 0.325 µM
TGI [8]: 7.12 µM
GI50 [9]: 0.324 µM
TGI [9]: 4.64 µM
GI50 [10]: 1.16 µM
TGI [10]: 14.1 µM

COc1ccc(C(=O)OC2C(OC3C(O)COC(O[C@H]4C[C@H]5[C@@H]6CC=C7C[C@@H](O)CC[C@]7(C)[C@H]6CC[C@]5(C)[C@H]4[C@H](C)C(=O)CCC(C)C)C3OC(C)=O)OCC(O)C2O)cc1 (some centres undefined)
GI50 [1]: < 0.003 µM
TGI [1]: 1.46 µM
GI50 [2]: < 0.003 µM
TGI [2]: 3.86 µM
GI50 [3]: < 0.003 µM
TGI [3]: < 0.003 µM
GI50 [4]: < 0.003 µM
TGI [4]: 0.682 µM
GI50 [5]: 0.216 µM
TGI [5]: 12.7 µM
GI50 [6]: < 0.003 µM
TGI [6]: 0.311 µM
GI50 [7]: < 0.003 µM
TGI [7]: 0.0173 µM
GI50 [8]: 0.0533 µM
TGI [8]: 6.88 µM
GI50 [9]: < 0.003 µM
TGI [9]: 0.592 µM
GI50 [10]: < 0.003 µM
TGI [10]: 4.36 µM

CC(=O)c1ccc2c(c1)N(CCCN(C)C)c1ccccc1S2
GI50 [1]: 13.5 µM
TGI [1]: 29.6 µM
GI50 [2]: 15.1 µM
TGI [2]: 32.1 µM
GI50 [3]: 11.4 µM
TGI [3]: 25.1 µM
GI50 [4]: 18.7 µM
TGI [4]: 49.5 µM
GI50 [5]: 14.4 µM
TGI [5]: 27.6 µM
GI50 [6]: 14.2 µM
TGI [6]: 30.2 µM
GI50 [7]: 16.2 µM
TGI [7]: 34.1 µM
GI50 [8]: 16.5 µM
TGI [8]: 31.4 µM
GI50 [9]: 15.6 µM
TGI [9]: 31.6 µM
GI50 [10]: 1.99 µM
TGI [10]: 16.4 µM

COc1ccc(Oc2cc(NCCC(F)(F)F)c3ncc(-c4ccc(C(=O)NC5CC5)c(C)c4)n3n2)c(F)c1F
GI50 [1]: 4.98 µM
TGI [1]: > 100 µM
GI50 [2]: 0.597 µM
TGI [2]: 57.8 µM
TGI [3]: 25.7 µM
GI50 [4]: 0.224 µM
TGI [4]: 64.3 µM
GI50 [5]: 12.3 µM
TGI [5]: > 100 µM
GI50 [6]: 2.16 µM
TGI [6]: > 78.5 µM
GI50 [7]: 0.381 µM
TGI [7]: > 64.8 µM
GI50 [8]: 8.67 µM
TGI [8]: > 91.9 µM
GI50 [9]: 2.02 µM
TGI [9]: 37 µM
GI50 [10]: 1.61 µM
TGI [10]: 31.1 µM

COc1cc2c(cc1O)C(c1cc(O)c(O)c(OC)c1)C(O)(C(=O)O)C(CO)C2O (centres undefined)
TGI [1]: > 100 µM
TGI [2]: > 100 µM
TGI [3]: > 100 µM
TGI [4]: > 100 µM
TGI [5]: > 100 µM
TGI [6]: > 100 µM
TGI [7]: > 100 µM
TGI [8]: > 100 µM
TGI [9]: > 100 µM
TGI [10]: > 100 µM

COC(=O)/C(=C\c1c(-c2ccccc2)[nH]c2ccccc12)S(C)(=O)=O
GI50 [1]: 4.32 µM
TGI [1]: 18.3 µM
GI50 [2]: 3.62 µM
TGI [2]: 18.3 µM
GI50 [3]: 6.56 µM
TGI [3]: 21.3 µM
GI50 [4]: 8.08 µM
TGI [4]: > 100 µM
GI50 [5]: 8.78 µM
TGI [5]: 22.4 µM
GI50 [6]: 4.16 µM
TGI [6]: > 100 µM
GI50 [7]: 3.06 µM
TGI [7]: 14.5 µM
GI50 [8]: 1.92 µM
TGI [8]: 3.97 µM
GI50 [9]: 10.7 µM
TGI [9]: 36.7 µM
GI50 [10]: 2.26 µM
TGI [10]: 9.61 µM

Oc1c2c(c(O)c3ccccc13)C1(N=N2)c2ccccc2Oc2ccccc21
TGI [1]: 25.5 µM
TGI [2]: 16.4 µM
TGI [3]: 35.7 µM
TGI [4]: > 100 µM
TGI [5]: 38.7 µM
TGI [6]: 28.5 µM
TGI [7]: 5.13 µM
TGI [8]: 10.8 µM
TGI [9]: 38.5 µM
TGI [10]: 33.5 µM

COc1ccc(-c2nc(-c3nc4ccc(C(F)(F)F)cc4[nH]3)c3ccccn23)cc1
GI50 [1]: > 100 µM
TGI [1]: > 100 µM
GI50 [2]: > 100 µM
TGI [2]: > 100 µM
GI50 [3]: > 100 µM
TGI [3]: > 100 µM
GI50 [4]: 32.3 µM
TGI [4]: > 100 µM
GI50 [5]: 51.8 µM
TGI [5]: > 100 µM
GI50 [6]: 4.73 µM
TGI [6]: > 100 µM
GI50 [7]: > 100 µM
TGI [7]: > 100 µM
GI50 [8]: > 100 µM
TGI [8]: > 100 µM
GI50 [9]: 38 µM
TGI [9]: > 100 µM
GI50 [10]: 48.1 µM
TGI [10]: > 100 µM

FC(F)(F)c1[nH]ncc1-c1nc2ccc3[nH]ncc3c2c2c1CCCC2
GI50 [1]: 1.73 µM
TGI [1]: 4.72 µM
GI50 [2]: 2.56 µM
TGI [2]: 7.5 µM
GI50 [3]: 1.17 µM
TGI [3]: 2.6 µM
GI50 [4]: 0.356 µM
TGI [4]: 2.73 µM
GI50 [5]: 1.58 µM
TGI [5]: 3.89 µM
GI50 [6]: 2.08 µM
TGI [6]: 8.73 µM
GI50 [7]: 1.24 µM
TGI [7]: 4.77 µM
GI50 [8]: 2.66 µM
TGI [8]: 6.86 µM
GI50 [9]: 1.17 µM
TGI [9]: 6.79 µM
GI50 [10]: 1.1 µM
TGI [10]: 2.52 µM

N#C/C(=C\c1cccc2cnccc12)N1N=NC2C=CC=CC21 (centres undefined)
GI50 [1]: 3.06 µM
TGI [1]: > 100 µM
GI50 [2]: 3.88 µM
TGI [2]: > 100 µM
GI50 [3]: 1.63 µM
TGI [3]: 5.59 µM
GI50 [4]: 2.53 µM
TGI [4]: > 100 µM
GI50 [5]: 4.32 µM
TGI [5]: > 100 µM
GI50 [6]: 2.76 µM
TGI [6]: > 100 µM
GI50 [7]: 2 µM
TGI [7]: > 100 µM
GI50 [8]: 1.91 µM
TGI [8]: 4.88 µM
GI50 [9]: 2.95 µM
TGI [9]: 46.1 µM
GI50 [10]: 0.184 µM
TGI [10]: 3.61 µM

O=Nc1c(O)c2ccccc2c2ccccc12
GI50 [1]: 1.43 µM
TGI [1]: 3.75 µM
GI50 [2]: 0.496 µM
TGI [2]: 2.09 µM
GI50 [3]: 1.6 µM
TGI [3]: 3.07 µM
GI50 [4]: 1.07 µM
TGI [4]: 64.2 µM
GI50 [5]: 1.91 µM
TGI [5]: 3.7 µM
GI50 [6]: 0.633 µM
TGI [6]: 2.73 µM
GI50 [7]: 1.26 µM
TGI [7]: 3.58 µM
GI50 [8]: 0.754 µM
TGI [8]: 2.45 µM
GI50 [9]: 0.768 µM
TGI [9]: 2.41 µM
GI50 [10]: 1.51 µM
TGI [10]: 2.92 µM

CNCCCn1c2c(c3ccc(F)cc3c1=O)C(=O)c1cc(OC)cnc1-2
GI50 [1]: 0.379 µM
TGI [1]: 3.55 µM
GI50 [2]: 0.11 µM
TGI [2]: 0.46 µM
GI50 [3]: 0.369 µM
TGI [3]: 1.61 µM
GI50 [4]: 0.12 µM
TGI [4]: 1.13 µM
GI50 [5]: 1.15 µM
TGI [5]: 4.17 µM
GI50 [6]: 0.37 µM
TGI [6]: 8.1 µM
GI50 [7]: 0.0569 µM
TGI [7]: 1.08 µM
GI50 [8]: 0.263 µM
TGI [8]: 1.39 µM
GI50 [9]: 0.142 µM
TGI [9]: 0.42 µM
GI50 [10]: 0.252 µM
TGI [10]: 3.28 µM
